Values after ≈ are worked out from the molar mass of the structure shown.
Tests used:
[1] = test system: Peptostreptococcus asaccharolyticus; assay: Agar dilution MIC; format: cell-based; conditions: Peptoniphilus asaccharolyticus
[2] = test system: Peptostreptococcus magnus; assay: Agar dilution MIC; format: cell-based; conditions: Finegoldia magna
[3] = test system: Peptostreptococcus micros; assay: Agar dilution MIC; format: cell-based
[4] = test system: Peptostreptococcus prevotii; assay: Agar dilution MIC; format: cell-based
[5] = test system: Porphyromonas asaccharolyticus; assay: Agar dilution MIC; format: cell-based, Porphyromonas asaccharolytica
Porphyromonas canoris = assay: Agar dilution MIC; format: cell-based
Porphyromonas gingivalis = assay: Agar dilution MIC; format: cell-based; conditions: Porphyromonas gingivalis
Porphyromonas macaccae = assay: Agar dilution MIC; format: cell-based
Porphyromonas spp. = assay: Agar dilution MIC; format: cell-based, Porphyromonas cangingivalis, cansulci, circumdentaria, levii
Prevotella bivia = assay: Agar dilution MIC; format: cell-based
[6] = test system: Prevotella buccae-oris group; assay: Agar dilution MIC; format: cell-based
[7] = test system: Prevotella heparinolytica; assay: Agar dilution MIC; format: cell-based
Prevotella intermedia = assay: Agar dilution MIC; format: cell-based
[8] = test system: Prevotella melaninogenica; assay: Agar dilution MIC; format: cell-based
[9] = test system: Prevotella denticola/loeschii group; assay: Agar dilution MIC; format: cell-based
Veillonella spp. = assay: Agar dilution MIC; format: cell-based
peptostreptococci = assay: Agar dilution MIC, peptostreptococci as a group; format: cell-based, P. asaccharolyticus, P. magnus, P. micros, P. prevotii; conditions: 45 strains of peptostreptococci from 4 species; read-out: concentration to which all strains were susceptible (MIC)
F. necrophorum = assay: Agar dilution MIC; format: cell-based; conditions: Fusobacterium necrophorum; read-out: concentration to which strains were susceptible (MIC)
Bacteroides fragilis = conditions: Goldstein, et al.; cited from earlier work
B. distasonis = conditions: Goldstein, et al.; cited from earlier work
B. ovatus = conditions: Goldstein, et al.; cited from earlier work
[10] = test system: certain Prevotella strains; conditions: Goldstein, et al.; cited from earlier work
[11] = read-out: Minimal Inhibitory Concentration 50% (MIC50)
[12] = 13 isolates, read-out: Minimal Inhibitory Concentration 90% (MIC90)
[13] = Porphyromonas, read-out: Minimal Inhibitory Concentration 50% (MIC50)
[14] = Porphyromonas, 11 isolates, read-out: Minimal Inhibitory Concentration 90% (MIC90)

CO/N=C1\CN(c2nc3c(cc2F)c(=O)c(C(=O)O)cn3C2CC2)CC1CN (racemic) [Gemifloxacin, (R,S)-7-(3-aminomethyl-4-methoxyiminopyrrolidin-1-yl)-1-cyclopropyl-6-fluoro-4-oxo-1,4-dihydro-1,8-naphthyridine-3-carboxylic acid]
MIC50 [1, 11]: 0.25 µg/mL (≈ 0.642 µM) | MIC90 ([1]; 11 isolates, read-out: Minimal Inhibitory Concentration 90% (MIC90)): 0.25 µg/mL (≈ 0.642 µM) | MIC50 [2, 11]: 0.03 µg/mL (≈ 0.077 µM) | MIC90 [2, 12]: 0.06 µg/mL (≈ 0.154 µM) | Minimal Inhibitory Concentration Range ([3]; 12 isolates): 0.06 to 0.125 µg/mL | MIC50 ([3]; Parvimonas micra, read-out: Minimal Inhibitory Concentration 50% (MIC50)): 0.06 µg/mL (≈ 0.154 µM) | MIC90 ([3]; Parvimonas micra, 12 isolates, read-out: Minimal Inhibitory Concentration 90% (MIC90)): 0.06 µg/mL (≈ 0.154 µM) | Minimal Inhibitory Concentration Range ([4]; 9 isolates): 0.06 to 0.25 µg/mL | MIC50 ([4]; Anaerococcus prevotii, read-out: Minimal Inhibitory Concentration 50% (MIC50)): 0.125 µg/mL (≈ 0.321 µM) | Minimal Inhibitory Concentration Range ([5]; 11 isolates): 0.06 to 0.125 µg/mL | MIC50 [5, 13]: 0.06 µg/mL (≈ 0.154 µM) | MIC90 [5, 14]: 0.125 µg/mL (≈ 0.321 µM) | Minimal Inhibitory Concentration Range (Porphyromonas canoris; 10 isolates): 0.06 to 0.25 µg/mL | MIC50 (Porphyromonas canoris; Porphyromonas canoris, read-out: Minimal Inhibitory Concentration 50% (MIC50)): 0.25 µg/mL (≈ 0.642 µM) | MIC90 (Porphyromonas canoris; Porphyromonas canoris, 10 isolates, read-out: Minimal Inhibitory Concentration 90% (MIC90)): 0.25 µg/mL (≈ 0.642 µM) | MIC50 (Porphyromonas gingivalis; [11]): 0.06 µg/mL (≈ 0.154 µM) | MIC90 (Porphyromonas gingivalis; [12]): 0.125 µg/mL (≈ 0.321 µM) | Minimal Inhibitory Concentration Range (Porphyromonas macaccae; 13 isolates): 0.03 to 0.125 µg/mL | MIC50 (Porphyromonas macaccae; [13]): 0.06 µg/mL (≈ 0.154 µM) | MIC90 (Porphyromonas macaccae; Porphyromonas, 13 isolates, read-out: Minimal Inhibitory Concentration 90% (MIC90)): 0.125 µg/mL (≈ 0.321 µM) | Minimal Inhibitory Concentration Range (Porphyromonas spp.; 11 isolates): 0.06 to 0.125 µg/mL | MIC50 (Porphyromonas spp.; [13]): 0.06 µg/mL (≈ 0.154 µM) | MIC90 (Porphyromonas spp.; [14]): 0.125 µg/mL (≈ 0.321 µM) | Minimal Inhibitory Concentration 90% (MIC90) (Prevotella bivia; 21 isolates): 8 µg/mL | MIC90 (Prevotella bivia; Prevotella bivia, 21 isolates, read-out: Minimal Inhibitory Concentration 90% (MIC90)): ≥ 4 µg/mL | MIC50 (Prevotella bivia; Prevotella bivia, read-out: Minimal Inhibitory Concentration 50% (MIC50)): 8 µg/mL (≈ 20.5 µM) | Minimal Inhibitory Concentration 90% (MIC90) ([6]; 22 isolates): 2 µg/mL | Minimal Inhibitory Concentration Range ([6]; 22 isolates): 0.5 to 8 µg/mL | MIC90 ([6]; Prevotella, 22 isolates, read-out: Minimal Inhibitory Concentration 90% (MIC90)): ≤ 2 µg/mL | MIC50 ([6]; Prevotella, read-out: Minimal Inhibitory Concentration 50% (MIC50)): 2 µg/mL (≈ 5.14 µM) | Minimal Inhibitory Concentration 90% (MIC90) ([7]; 16 isolates): 0.5 µg/mL | Minimal Inhibitory Concentration Range ([7]; 16 isolates): 0.25 to 0.5 µg/mL | Minimal Inhibitory Concentration 90% (MIC90) ([7]; 16 isolates, listed as gemifloxacin): ≤ 2 µg/mL | MIC50 ([7]; Prevotella heparinolytica, read-out: Minimal Inhibitory Concentration 50% (MIC50)): 0.5 µg/mL (≈ 1.28 µM) | Minimal Inhibitory Concentration 90% (MIC90) (Prevotella intermedia; 11 isolates): 0.5 µg/mL | Minimal Inhibitory Concentration Range (Prevotella intermedia; 11 isolates): 0.06 to 1 µg/mL | Minimal Inhibitory Concentration 90% (MIC90) (Prevotella intermedia; 11 isolates, listed as gemifloxacin): ≤ 2 µg/mL | MIC50 (Prevotella intermedia; Prevotella intermedia, read-out: Minimal Inhibitory Concentration 50% (MIC50)): 0.25 µg/mL (≈ 0.642 µM) | Minimal Inhibitory Concentration 90% (MIC90) ([8]; 12 isolates): 8 µg/mL | MIC90 ([8]; Prevotella melaninogenica, 12 isolates, read-out: Minimal Inhibitory Concentration 90% (MIC90)): ≥ 4 µg/mL | MIC50 ([8]; Prevotella melaninogenica, read-out: Minimal Inhibitory Concentration 50% (MIC50)): 1 µg/mL (≈ 2.57 µM) | Minimal Inhibitory Concentration Range ([9]; 6 isolates): 0.25 to 8 µg/mL | MIC50 ([9]; Prevotella denticola, read-out: Minimal Inhibitory Concentration 50% (MIC50)): 0.5 µg/mL (≈ 1.28 µM) | Minimal Inhibitory Concentration 90% (MIC90) (Veillonella spp.; 24 isolates): 8 µg/mL | MIC90 (Veillonella spp.; Veillonella, 24 isolates, read-out: Minimal Inhibitory Concentration 90% (MIC90)): ≥ 4 µg/mL | MIC50 (Veillonella spp.; Veillonella, read-out: Minimal Inhibitory Concentration 50% (MIC50)): 1 µg/mL (≈ 2.57 µM) | MIC (peptostreptococci): ≤ 0.25 µg/mL | MIC (F. necrophorum): ≤ 2 µg/mL | activity (Bacteroides fragilis): showed activity | activity (B. distasonis): only limited activity | activity (B. ovatus): only limited activity | activity [10]: showed activity

Source: patent US6455540B1, “Methods of use of quinolone compounds against anaerobic pathogenic bacteria” (priority 1999, dated 2002)
